Experimental data: the supplement of paper PMC11061612

Columns and labels:
Assay in all cases: combination Emax (second highest fraction inhibited in the dose matrix, 72 h); higher = more inhibition; extreme values may be limits of the assay
[1] = system: SNU-16 (Gastric Carcinoma)
In short: (§1)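 After 24 hours at 37°C and 5% CO2 in 1536-well plates, cells in DMEM/F12 or RPMI plus 10% FBS received two-drug dose matrices for 72 hours. Viability came from CellTiter-Glo 2.0 luminescence and was scaled as inhibition, anchored at 0 by vehicle wells and at 1 by blank wells. Combination Emax is taken as the second-highest inhibition in the matrix, and Bliss excess as the observed combination effect less EA + EB − EA·EB, with EA and EB the single-agent effects.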

EW-11 (Ewing's Sarcoma) = system: EW-11 (Ewing's Sarcoma)
In short: as §1

A673 (Ewing's Sarcoma) = system: A673 (Ewing's Sarcoma)
In short: as §1

[2] = system: HuCCT1 (Biliary Tract Carcinoma)
In short: as §1

KS-1 (Glioblastoma) = system: KS-1 (Glioblastoma)
In short: as §1

[3] = system: LS-123 (Colorectal Carcinoma)
In short: as §1

MPP-89 (Mesothelioma) = system: MPP-89 (Mesothelioma)
In short: as §1

GAMG (Glioblastoma) = system: GAMG (Glioblastoma)
In short: as §1

[4] = system: TGBC1TKB (Biliary Tract Carcinoma)
In short: as §1

[5] = system: ESS-1 (Other Solid Carcinomas)
In short: as §1

[6] = system: OV-56 (Ovarian Carcinoma)
In short: as §1

[7] = system: HuH-7 (Hepatocellular Carcinoma)
In short: as §1

[8] = system: NUGC-4 (Gastric Carcinoma)
In short: as §1

[9] = system: FTC-133 (Thyroid Gland Carcinoma)
In short: as §1

[10] = system: BFTC-909 (Kidney Carcinoma)
In short: as §1

[11] = system: Detroit562 (Head and Neck Carcinoma)
In short: as §1

NCI-H2722 (Mesothelioma) = system: NCI-H2722 (Mesothelioma)
In short: as §1

[12] = system: OE21 (Esophageal Squamous Cell Carcinoma)
In short: as §1

[13] = system: CAL-33 (Oral Cavity Carcinoma)
In short: as §1

[14] = system: HeLa (Cervical Carcinoma)
In short: as §1

SMILES	combination Emax [1]	combination Emax (EW-11 (Ewing's Sarcoma))	combination Emax (A673 (Ewing's Sarcoma))	combination Emax [2]	combination Emax (KS-1 (Glioblastoma))	combination Emax [3]	combination Emax (MPP-89 (Mesothelioma))	combination Emax (GAMG (Glioblastoma))	combination Emax [4]	combination Emax [5]	combination Emax [6]	combination Emax [7]	combination Emax [8]	combination Emax [9]	combination Emax [10]	combination Emax [11]	combination Emax (NCI-H2722 (Mesothelioma))	combination Emax [12]	combination Emax [13]	combination Emax [14]
N#Cc1cnc(Nc2cc(NC[C@H]3CNCCO3)c(C(F)(F)F)cn2)cn1 [SRA737] + C=CCn1c(=O)c2cnc(Nc3ccc(N4CCN(C)CC4)cc3)nc2n1-c1cccc(C(C)(C)O)n1 [AZD1775] (first compound max 10 µM, partner max 1 µM)	0.995	0.603	0.635	0.812	0.499	0.722	0.661	0.726	0.271	1	–	–	–	–	–	–	–	–	–	–
Cc1cc2ncnn2cc1Nc1ncc2c(n1)n(C1CCOCC1)c(=O)n2C [AZD7648] + CN(C)CCCOc1ccc(-c2ccc3ncc4c(c3c2)n(C2CCOCC2)c(=O)n4C)cn1 [AZD0156] (first compound max 10 µM, 7x7, partner max 1 µM)	0.239	0.549	0.336	0.389	0.245	0.34	0.302	0.402	0.398	0.481	0.224	0.201	0.216	0.241	0.338	0.419	0.209	0.554	0.375	0.204
N#Cc1cnc(Nc2cc(NC[C@H]3CNCCO3)c(C(F)(F)F)cn2)cn1 [SRA737] + CCc1c2c(nc3ccc(O)cc13)-c1cc3c(c(=O)n1C2)COC(=O)[C@]3(O)CC [SN-38] (first compound max 10 µM, 7x7, partner max 0.3 µM)	0.995	0.682	0.945	0.847	0.458	0.773	0.73	0.878	0.367	1	–	–	–	–	–	–	–	–	–	–
CN(CCO)CC[C@H](CSc1ccccc1)Nc1ccc(S(=O)(=O)NC(=O)c2ccc(N3CCC([C@@H](O)c4ccccc4-c4ccc(Cl)cc4)CC3)cc2)cc1S(=O)(=O)C(F)(F)F [AZD4320] + CCN(CCO)CCCOc1ccc2c(Nc3cc(CC(=O)Nc4cccc(F)c4)[nH]n3)ncnc2c1 [AZD2811] (first compound max 1 µM, 7x7, partner max 1 µM)	0.747	0.865	1	0.136	0.464	–	0.526	0.845	0.424	0.923	0.117	0.219	0.215	0.681	0.514	0.825	0.401	0.111	0.853	0.192
Cc1cc2ncnn2cc1Nc1ncc2c(n1)n(C1CCOCC1)c(=O)n2C [AZD7648] + COc1cc([C@@H]2c3cc4c(cc3[C@@H](O[C@@H]3O[C@@H]5CO[C@@H](C)O[C@H]5[C@H](O)[C@H]3O)[C@H]3COC(=O)[C@H]23)OCO4)cc(OC)c1O [Etoposide] (first compound max 10 µM, 7x7, partner max 10 µM)	0.794	0.682	0.855	0.648	0.431	0.884	0.604	0.872	0.326	1	–	–	–	–	–	–	–	–	–	–
N#Cc1cnc(Nc2cc(NC[C@H]3CNCCO3)c(C(F)(F)F)cn2)cn1 [SRA737] + Nc1ccn([C@@H]2O[C@H](CO)[C@@H](O)C2(F)F)c(=O)n1 [Gemcitabine] (first compound max 10 µM, 7x7, partner max 0.3 µM)	1	0.854	0.946	0.792	0.5	0.759	0.656	0.892	0.457	1	–	–	–	–	–	–	–	–	–	–
COc1nnc2ccc(N3CCC(c4ccc(OCCN5CCN(C)C(=O)[C@H]5C)cc4)CC3)nn12 [AZD5153] + CN(CC[C@H](CSC1=CC=CC=C1)NC2=C(C=C(C=C2)S(=O)(=O)NC(=O)C3=CC=C(C=C3)N4CCC(CC4)[C@H](C5=CC=CC=C5C6=CC=C(C=C6)Cl)O)S(=O)(=O)C(F)(F)F)CCO [AZD4320] (first compound max 1 µM, 7x7, partner max 1 µM)	–	–	–	–	–	–	–	–	–	–	0.507	0.786	0.634	0.909	0.71	0.942	0.774	0.739	0.343	0.433
CN(CCO)CC[C@H](CSc1ccccc1)Nc1ccc(S(=O)(=O)NC(=O)c2ccc(N3CCC([C@@H](O)c4ccccc4-c4ccc(Cl)cc4)CC3)cc2)cc1S(=O)(=O)C(F)(F)F [AZD4320] + Cc1cc2ncnn2cc1Nc1ncc2c(n1)n(C1CCOCC1)c(=O)n2C [AZD7648] (first compound max 1 µM, 7x7, partner max 10 µM)	0.3	0.829	0.937	0.26	0.319	–	0.281	0.286	0.577	0.502	0.149	0.279	0.329	0.491	0.246	0.22	0.159	0.17	0.363	0.0576
